Measured values published in patent US20250257383A1, “MATERIAL DETECTION METHOD USING AMINOACYLASE” (JOSHO GAKUEN EDUCATIONAL FOUNDATION, priority 2021, published 2025).

Experiments:
[1] = system: amidohydrolase 4ewt (amino acid sequence of SEQ ID NO: 1, SACOL0085); test: Enzymatic detection of hippuric acid or methylhippuric acid by hydrolysis with amidohydrolase 4ewt and glycine oxidase/Trinder absorbance measurement (Example); assay type: biochemical, Staphylococcus aureus COL; settings: amidohydrolase 4ewt 30 units/mL; specimens 5, 10, 20 mM in saline; 37° C.; Tris buffer pH 8.5; absorbance 545 nm; FIG. 3
Description: A first reagent R1 was prepared which contained 30 units/mL of amidohydrolase 4ewt, 7.5 units/mL of peroxidase, 4.5 mM of N-ethyl-N-(2-hydroxy-3-sulfopropyl)-3-methoxyaniline (TOOS), and 50 mM of Tris buffer (pH 8.5), and a second reagent R2 was prepared which contained 5 units/mL of glycine oxidase, 1.2 mM of 4-aminoantipyrine, and 100 mM of Tris buffer (pH 8.5).
Specimen Groups 1 to 4 and Specimen 0 were prepared as measurement samples, i.e., examination specimens.
Each of the examination specimens was diluted to five times by means of an automatic analyzer to prepare a diluted specimen solution. A volume of 60 μL of the first reagent R1 was added and mixed with 2 μL of the diluted specimen solution, and the reaction was allowed to proceed well at 37° C. After that, 20 μL of the second reagent R2 was further added and mixed with the reaction mixture, and the reaction was allowed to proceed well at 37° C. The absorbance of the resulting specimen solution was measured using an automatic analyzer, manufactured by JEOL Ltd. under the trade name JCA-BM 6050, at a primary wavelength of 545 nm and a secondary wavelength of 805 nm. The concentration of hippuric acid or methylhippuric acid in each examination specimen was calculated from the measured absorbance and plotted on a graph.
In FIG. 3, the abscissa represents known concentrations (unit: mM) of hippuric acid or methylhippuric acid in the examination specimens and the ordinate represents measured concentrations (unit: mM) obtained by the automatic analyzer. In FIG. 3, the diamond symbols represent the specimens of Specimen Group 1, namely the examination specimens containing hippuric acid, the square symbols represent the specimens of Specimen Group 2, namely the examination specimens containing 2-methylhippuric acid, the triangle symbols represent the specimens of Specimen Group 3, namely the examination specimens containing 3-methylhippuric acid, and the x symbols represent the specimens of Specimen Group 4, namely the examination specimens containing 4-methylhippuric acid. The examination specimen for which the known concentration is 0 mM is Specimen 0, which is represented by using all of the symbols representing Specimen Groups 1 to 4 since, as previously stated, Specimen 0 was used as a negative control in measurement for the Specimen Groups 1 to 4.
The amidohydrolase 4ewt used in Example was produced using a gene chemically synthesized by converting the amino acid sequence of SEQ ID NO: 1 to a base sequence. […]

aminoacylase PH1043 = test: Same detection method using aminoacylase PH1043 (Comparative Example 1); assay type: biochemical, Pyrococcus horikoshii; settings: aminoacylase PH1043 instead of amidohydrolase; specimens 5, 10, 20 mM in saline; 37° C.; FIG. 4
Description: (§1) The absorbance of each specimen was measured in the same manner as in Example, except for using hitherto known aminoacylase PH1043 instead of the amidohydrolase used in Example. The concentration of hippuric acid or methylhippuric acid in each examination specimen was calculated from the measured absorbance and plotted on a graph. The abscissa, ordinate, and symbols in FIG. 4 are the same as those in FIG. 3.
The aminoacylase PH1043 used in Comparative Example 1 is one produced by Nipro Corporation. The aminoacylase PH1043 will not be described in detail as it is a hitherto known enzyme described, for example, in the following literatures: Imai Satsuki, Nagoshi Kentaro, Shinki Shota, Baba Toshiaki, Nishiya Yoshiaki, “Functional Modification of Pyrococcus horikoshii-Derived Hippurate Hydrolase”, The Society for Biotechnology, Japan (2018) (Reference Literature 7); Imai Satsuki, Nagoshi Kentaro, Shinki Shota, Baba Toshiaki, Nishiya Yoshiaki, “Development of Method and Enzyme for Enzymatic Assay of Hippuric Acid”, The Society of Analytical Bio-Science (2019) (Reference Literature 8); Imai Satsuki, Nagoshi Kentaro, Shinki Shota, Baba Toshiaki, Nishiya Yoshiaki, “Functional Improvement of Hippurate Hydrolase”, Japan Society for Bioscience, Biotechnology and Agrochemistry (2019) (Reference Literature 9); Imai Satsuki, Nagoshi Kentaro, Shinki Shota, Baba Toshiaki, Nishiya Yoshiaki, “Functional Improvement of Hippurate Hydrolase toward Practical Use”, The Molecular Biology Society of Japan (2019) (Reference Literature 10); Imai Satsuki, Nagoshi Kentaro, Shinki Shota, Baba Toshiaki, Nishiya Yoshiaki, “Development of Enzymatic Assay Method for Determining Total Exposure to Toluene and Xylene (1)”, The Society of Analytical Bio-Science (2020) (Reference Literature 11); and Suginaka Muneyuki, Torii Gento, Imai Satsuki, Baba Toshiaki, Nishiya Yoshiaki, “Development of Enzymatic Assay Method for Determining Total Exposure to Toluene and Xylene (2)”, The Molecular Biology Society of Japan (2020) (Reference Literature 12). The contents of Reference Literatures 7 to 12 are incorporated herein by reference.

[2] = system: hippurate hydrolase (EC 3.5.1.32); test: Same detection method using hippurate hydrolase (Comparative Example 2); assay type: biochemical; settings: hippurate hydrolase instead of amidohydrolase; specimens 5, 10, 20 mM in saline; 37° C.; FIG. 5
Description: as §1, with “using a” for “using”, “hippurate hydrolase (EC 3.5.1.32, manufactured by Nipro Corporation)” for “aminoacylase PH1043”, “5” for “4”, “3 or 4.” for “3.”

| SMILES | agreement of measured concentration with known concentration in the specimen (hydrolysis by the enzyme) [1] | agreement of measured concentration with actual concentration in the specimen (hydrolysis by the enzyme) (aminoacylase PH1043) | agreement of measured concentration with actual concentration in the specimen (hydrolysis by the enzyme) [2] |
| --- | --- | --- | --- |
| Cc1ccccc1C(=O)NCC(=O)O [2-methylhippuric acid, (2-methylbenzoylamino)acetic acid] | agree well with each other | not much different from the measured concentration obtained for the negative control | not much different from the measured concentration obtained for the negative control |
| Cc1cccc(C(=O)NCC(=O)O)c1 [3-methylhippuric acid] | agree well with each other | agreed well with the actual concentrations | agreed well with the actual concentrations |
| Cc1ccc(C(=O)NCC(=O)O)cc1 [4-methylhippuric acid] | agree well with each other | agreed well with the actual concentrations | agreed well with the actual concentrations |
| O=C(O)CNC(=O)c1ccccc1 [hippuric acid, benzoylaminoacetic acid] | agree well with each other | agreed well with the actual concentrations | agreed well with the actual concentrations |
